Columns and labels:
[1] = tested on: epithelial cells; assay: IIH6 blot of glycosylated α-DG from treated epithelial cells; format: cell-based; conditions: 3 days culture with agent
Method: Lane 1, control untreated cells; Lane 4, cells treated with ribulose-5-phosphate; Lane 5, cells treated with glucose. […] Cells are grown in culture medium and active reagents were added one day later and culture for further 3 days with the active agent. The cells were then collected, homogenized, blotted onto membrane and detected with 1H6 antibody for the expression of glycosylated a-DG. The black large spot represents the expression of the glycosylated a-DG, with higher intensity indicating higher levels.

[2] = tested on: epithelial cells; assay: IIH6 membrane staining of glycosylated α-DG in treated epithelial cells; format: cell-based; conditions: 3 days culture with agent, vs control
Method: The white lines represent the membrane staining with the antibody. […] Cells are grown in culture medium and active reagents were added one day later and culture for further 3 days with the described concentration. The cells were then washed, fixed and stained with IIH6 antibody for the expression of glycosylated a-DG. The positive signals present as membrane staining (white lines and circles here) which are only detected in the majority of the treated samples, but hardly seen in the control.

[3] = tested on: FKRP and LARGE transcripts; assay: Quantitative real-time PCR of FKRP and LARGE transcripts; format: in vivo, mouse; conditions: cardiac muscle, limb muscle and diaphragm
Method: Quantitative reverse transcriptase PCR assay. Tissues were collected from heart, diaphragm and tibialis anterior. RNA was extracted using TRIzol (Invitrogen) following the supplied protocol. Final RNA pellet was re-suspended in 20 μl RNAse-nuclease free water. Final RNA concentration was determined using Nanodrop 2000c. One […] of RNA was subsequently converted to cDNA using the High-Capacity RNA-to-cDNA™ Kit (Applied Biosystems) following the supplied protocol. cDNA was then used for quantitative real-time PCR using the mouse FKRP-FAM (Mm00557870 ml) and LARGE-FAM (Mm00521885_ml) taqman assay with primer limited GAPDH-VIC (Mm99999915_g1) as the internal control and TaqMan® Universal Master Mix II, with UNG (Life Technologies). […] Results of FKRP and LARGE transcript were calculated and expressed as 2^−ΔΔCt and compared across tissues and animals.

[4] = tested on: MCF-7 cells; assay: FACS for expression of glycosylated alpha-DG after ribitol treatment; format: cell-based; conditions: MCF-7, 10 mM ribitol for 3 days; untreated controls 45%
Method: FIG. 1. Fluorescence-activated cell sorting (FACS) for the enhanced expression of glycosylated alpha-DG after ribitol treatment. The breast cancer cell line MCF-7 was seeded in T25 culture flasks and cultured to 75% confluence in DMEM 10% FBS, and then treated with 10 mM ribitol in the same growth medium for 3 days. The cells were then collected by gentle scrapping and washed twice with PBS. The cells were resuspended in 100 microliter PBS and stained with monoclonal antibody IIH6 (Millipore EMD, 1:100 dilution) for 40 minutes and detected with secondary Alexa 594-labeled goat anti-mouse IgM (Invitrogen). The stained cells were washed and then FACS analyzed for the percentage of positive cells and the signal intensity (Alexa594.007). […]
Fluorescence-activated cell sorting (FACS) was used to show enhanced expression of glycosylated alpha-DG after ribitol treatment. […] The cells were resuspended in 100 microliter PBS and stained with monoclonal antibody IIH6 (Millipore EMD, 1:100 dilution) for 40 minutes and detected with secondary Alexa 594-labeled goat anti-mouse IgM (Invitrogen). The stained cells were washed and then FACS analyzed for the percentage of positive cells and the signal intensity (Alexa594.007). […]

## O=C(CO)[C@H](O)[C@H](O)CO [ribulose]
[1]
  functionally glycosylated alpha-DG on blot: observed visually
[2]
  glycosylated α-DG membrane staining (IIH6): positive signals are identified in the majority of the cells

## OC[C@@H](O)[C@@H](O)[C@@H](O)CO [ribitol]
[3]
  FKRP and LARGE transcript levels, treated vs untreated: No statistically significant difference
[1]
  functionally glycosylated alpha-DG on blot: observed visually
[4]
  positive cells for glycosylated alpha-DG (IIH6 antibody): 82%
[2]
  glycosylated α-DG membrane staining (IIH6): positive signals are identified in the majority of the cells

## Nc1ccn([C@@H]2O[C@H](COP(=O)(O)OP(=O)(O)OC[C@@H](O)[C@@H](O)[C@@H](O)CO)[C@@H](O)[C@H]2O)c(=O)n1 [CDP-ribitol]
[2]
  glycosylated α-DG membrane staining (IIH6): positive signals are identified in the majority of the cells

## O=C(CO)[C@H](O)[C@H](O)COP(=O)(O)O [ribulose-5-phosphate, reference compound]
[1]
  functionally glycosylated alpha-DG on blot: barely detectable

Source: patent US12478634B2, “Compositions and methods for treating muscular dystrophy and other disorders” (The Charlotte Mecklenburg Hospital Authority, priority 2016, dated 2025)
